# Reference: patent US10098350B2, “Fungicidal amides” (E. I. DU PONT DE NEMOURS AND COMPANY, priority 2013, dated 2018)
# Assays:
# Format in all cases: in vivo
# [1] = test system: Erysiphe graminis f. sp. tritici; assay: Test E: wheat seedlings sprayed with test suspension, inoculated with Erysiphe graminis f. sp. tritici (wheat powdery mildew), visual disease rating
# Method in brief: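 Wheat seedlings sprayed to run-off with compound suspension (acetone 3%, acetone/water 50/50 with 250 ppm Trem 014) at 10, 40, 50 or 200 ppm (40–800 g ai/ha), inoculated next day with spore dust. Incubated 7 or 8 days at 20° C, then rated visually as % disease control relative to controls (0–100).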
# [2] = test system: Puccinia recondite f. sp. tritici; assay: Test D: wheat seedlings sprayed with test suspension, inoculated with Puccinia recondite f. sp. tritici (wheat leaf rust), visual disease rating
# Method in brief: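 Wheat seedlings were sprayed to run-off with compound suspended in 50/50 acetone–water containing 250 ppm Trem 014, at 10-200 ppm (40-800 g ai/ha). They were inoculated with rust spores the next day, then kept 24 h saturated at 20 °C and 6 days at 20 °C. Scores are visual % disease control versus untreated controls.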
# [3] = test system: Stagonospora nodorum (also known as Septoria nodorum); assay: Test B: wheat seedlings sprayed with test suspension, inoculated with Stagonospora nodorum (wheat glume blotch), visual disease rating
# Method in brief: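 Compounds in acetone/water 50/50 with 250 ppm Trem 014 were sprayed to run-off on wheat seedlings at 10, 40, 50 or 200 ppm (40–800 g ai/ha). Plants were inoculated next day, held 48 h saturated at 20 °C, then 6 days in a growth chamber at 20 °C. Visual rating 0–100% disease control relative to controls.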
# Botrytis cinerea = assay: Test A: tomato seedlings sprayed with test suspension, inoculated with Botrytis cinerea (gray mold), visual disease rating
# Excerpt: General protocol for preparing test suspensions for Tests A-E: the test compounds were first dissolved in acetone in an amount equal to 3% of the final volume and then suspended at the desired concentration (in ppm) in acetone and purified water (50/50 mix by volume) containing 250 ppm of the surfactant Trem® 014 (polyhydric alcohol esters). The resulting test suspensions were then used in Tests A-E. Samples were applied to plants at either a 10 ppm (**), 40 ppm, 50 ppm (*) or 200 ppm (#) test solution to the point of run-off on the test plants with the equivalent of a rate of 40 g ai/ha, 160 g ai/ha, 200 g ai/ha, or 800 g ai/ha, respectively.
# The test suspension was sprayed to the point of run-off on tomato seedlings. The following day the seedlings were inoculated with a spore suspension of Botrytis cinerea (the causal agent of gray mold on many crops) and incubated in a saturated atmosphere at 20° C. for 48 h, and moved to a growth chamber at 27° C. for 2 days, after which time visual disease ratings were made.
# Results for Tests A-E are given in Table A. In the Table, a rating of 100 indicates 100% disease control and a rating of 0 indicates no disease control (relative to the controls). A dash (-) indicates no test results.
# Septoria tritici = assay: Test C: wheat seedlings sprayed with test suspension, inoculated with Septoria tritici (wheat leaf blotch), visual disease rating
# Method in brief: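 Wheat seedlings sprayed to run-off with compound suspended in acetone/water with 250 ppm Trem 014, at 10, 40, 50 or 200 ppm (40–800 g ai/ha). Inoculated with Septoria tritici spores the next day, held 48 h saturated at 24 °C, then 21 days at 20 °C. Visual rating 0–100% disease control relative to controls.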
# [4] = Cmpd. No. unmarked, 100 = 100% disease control, 0 = no control relative to controls
# [5] = Cmpd. No. marked '#' (other test rate; meaning of mark not shown)
# [6] = Cmpd. No. marked '*' (other test rate; meaning of mark not shown)
Compound,"Test E rating (% disease control) [1, 4]","Test D rating (% disease control) [2, 4]","Test B rating (% disease control) [3, 4]",Test A rating (% disease control) (Botrytis cinerea; [4]),Test C rating (% disease control) (Septoria tritici; [4]),"Test E rating (% disease control) [1, 5]","Test D rating (% disease control) [2, 5]","Test B rating (% disease control) [3, 5]",Test A rating (% disease control) (Botrytis cinerea; [5]),Test C rating (% disease control) (Septoria tritici; [5]),"Test E rating (% disease control) [1, 6]","Test D rating (% disease control) [2, 6]","Test B rating (% disease control) [3, 6]",Test A rating (% disease control) (Botrytis cinerea; [6]),Test C rating (% disease control) (Septoria tritici; [6])
Cn1cc(C(=O)N(Cc2ccc(-n3cc(Cl)cn3)cc2Cl)C2CC2)c(C(F)F)n1 [compound 20],40%,79%,99%,32%,94%,,,,,,,,,,
Cn1cc(C(=O)N(Cc2ccc(-n3ccc(Cl)n3)cn2)C2CC2)c(C(F)F)n1 [compound 5],0%,0%,0%,0%,17%,0%,28%,0%,0%,80%,,,,,
"Cn1nc(C(F)F)c(C(=O)N(Cc2cccc(-n3ccc(C(F)(F)F)n3)c2)C2CC2)c1F [Compound 3, N-cyclopropyl-3-(difluoromethyl)-5-fluoro-1-methyl-N-[[3-[3-(trifluoromethyl)-1H-pyrazol-1-yl]phenyl]methyl]-1H-pyrazole-4-carboxamide]",99%,99%,100%,0%,100%,,,,,,,,,,
CC(c1ncc(-n2ccc(C(F)(F)F)n2)cc1Cl)N(C(=O)c1cn(C)nc1C(F)F)C1CC1 (stereo not drawn) [compound 17],92%,23%,100%,0%,99%,,,,,,,,,,
COc1ccc(-n2ccc(C(F)(F)F)n2)cc1CN(C(=O)c1cn(C)nc1C(F)F)C1CC1 [compound 14],92%,32%,42%,0%,83%,,,,,,,,,,
"Cn1cc(C(=O)N(Cc2cccc(-n3ccc(C(F)(F)F)n3)c2)C2CC2)c(C(F)F)n1 [Compound 9, N-cyclopropyl-3-(difluoromethyl)-1-methyl-N-[[3-[3-(trifluoromethyl)-1H-pyrazol-1-yl]phenyl]methyl]-1H-pyrazole-4-carboxamide]",81%,9%,93%,9%,96%,96%,74%,99%,39%,100%,,,,,
Cn1cc(C(=O)N(Cc2cc(-n3ccc(C(F)(F)F)n3)ccc2Cl)C2CC2)c(C(F)F)n1 [compound 30],64%,31%,60%,0%,87%,,,,,,,,,,
Cn1cc(C(=O)N(Cc2ccc(-n3ccc(-c4ccccc4)n3)cn2)C2CC2)c(C(F)F)n1 [compound 8],0%,0%,0%,0%,27%,0%,74%,0%,0%,88%,,,,,
N-cyclopropyl-3-(difluoromethyl)-1-methyl-N-[[3-[3-(trifluoromethyl)-1H-pyrazol-1-yl]phenyl]methyl]-1H-pyrazole-4-carboxamide [Compound 9],0%,0%,0%,0%,43%,43%,0%,0%,0%,96%,,,,,
Cc1nc(C(F)(F)F)c(C(=O)N(Cc2ccc(-n3ccc(C(F)(F)F)n3)cc2Cl)C2CC2)s1 [Compound 151],0%,23%,0%,23%,87%,,,,,,,,,,
Cn1cc(C(=O)N(Cc2cc(-n3ccc(C(F)(F)F)n3)ccc2[N+](=O)[O-])C2CC2)c(C(F)F)n1 [compound 13],0%,32%,0%,0%,0%,,,,,,,,,,
Cn1cc(C(=O)N(Cc2cccc(-n3ccc(C(F)(F)F)n3)c2C(F)(F)F)C2CC2)c(C(F)F)n1 [compound 41],40%,23%,0%,0%,94%,,,,,,,,,,
Cc1ccsc1C(=O)N(Cc1cccc(-n2ccc(C(F)(F)F)n2)c1)C1CC1 [Compound 152],0%,0%,0%,0%,0%,,,,,,,,,,
CC(c1ccc(-n2ccc(C(F)(F)F)n2)cc1Cl)N(C(=O)c1cn(C)nc1C(F)F)C1CC1 (stereo not drawn) [compound 19],64%,85%,99%,0%,75%,,,,,,,,,,
Cc1cc(-n2ccc(C(F)(F)F)n2)cc(CN(C(=O)c2cn(C)nc2C(F)F)C2CC2)c1F [compound 29],48%,68%,94%,0%,83%,,,,,,,,,,
CC(c1ccc(C(F)(F)F)c(-n2ccc(C(F)(F)F)n2)c1)N(C(=O)c1cn(C)nc1C(F)F)C1CC1 (stereo not drawn) [compound 21],64%,0%,0%,0%,,,,,,,,,,,
Cn1nc(C(F)F)c(C(=O)N(Cc2ccc(-n3ccc(C(F)(F)F)n3)cc2OC(F)(F)F)C2CC2)c1F [compound 23],98%,99%,98%,0%,,,,,,,,,,,
Cn1cc(C(=O)N(Cc2ccc(-n3ccc(C(F)(F)F)n3)cc2Cl)C2CC2)c(C(F)(F)F)n1 [Compound 35],0%,9%,0%,0%,89%,,,,,,,,,,
Cn1cc(C(=O)N(Cc2cnc(-n3ccc(C(F)(F)F)n3)cc2Cl)C2CC2)c(C(F)(F)F)n1 [Compound 148],,,,,,,,,,,0%,0%,0%,0%,9%
Cc1nc(C(F)(F)F)c(C(=O)N(Cc2cccc(-n3ccc(C(F)(F)F)n3)c2)C2CC2)s1 [Compound 150],0%,9%,0%,0%,48%,,,,,,,,,,
Cn1cc(C(=O)N(Cc2cccc(-n3ccc(C(F)(F)F)n3)c2Cl)C2CC2)c(C(F)F)n1 [compound 38],69%,41%,0%,14%,,,,,,,,,,,
CC(c1cc(Cl)cc(-n2ccc(C(F)(F)F)n2)c1)N(C(=O)c1cn(C)nc1C(F)F)C1CC1 (stereo not drawn) [compound 22],81%,55%,90%,0%,,,,,,,,,,,
